Each block holds one compound with its values, some of them ahead of it.
Legend:
[1] = target: T1, human glucocorticoid receptor (hGR) (Homo sapiens, UniProt P04150); test: human glucocorticoid receptor binding assay (displacement of 3(H) Triamcinolone acetonide); details: for hGR, value given as %: concentration not given
T1 construct: made in house; host or cells: Sf21 insect cells infected with baculovirus hGR, OR IM9 lymphoblast cell line (endogenous hGR)
T1 sequence (P04150 1-777): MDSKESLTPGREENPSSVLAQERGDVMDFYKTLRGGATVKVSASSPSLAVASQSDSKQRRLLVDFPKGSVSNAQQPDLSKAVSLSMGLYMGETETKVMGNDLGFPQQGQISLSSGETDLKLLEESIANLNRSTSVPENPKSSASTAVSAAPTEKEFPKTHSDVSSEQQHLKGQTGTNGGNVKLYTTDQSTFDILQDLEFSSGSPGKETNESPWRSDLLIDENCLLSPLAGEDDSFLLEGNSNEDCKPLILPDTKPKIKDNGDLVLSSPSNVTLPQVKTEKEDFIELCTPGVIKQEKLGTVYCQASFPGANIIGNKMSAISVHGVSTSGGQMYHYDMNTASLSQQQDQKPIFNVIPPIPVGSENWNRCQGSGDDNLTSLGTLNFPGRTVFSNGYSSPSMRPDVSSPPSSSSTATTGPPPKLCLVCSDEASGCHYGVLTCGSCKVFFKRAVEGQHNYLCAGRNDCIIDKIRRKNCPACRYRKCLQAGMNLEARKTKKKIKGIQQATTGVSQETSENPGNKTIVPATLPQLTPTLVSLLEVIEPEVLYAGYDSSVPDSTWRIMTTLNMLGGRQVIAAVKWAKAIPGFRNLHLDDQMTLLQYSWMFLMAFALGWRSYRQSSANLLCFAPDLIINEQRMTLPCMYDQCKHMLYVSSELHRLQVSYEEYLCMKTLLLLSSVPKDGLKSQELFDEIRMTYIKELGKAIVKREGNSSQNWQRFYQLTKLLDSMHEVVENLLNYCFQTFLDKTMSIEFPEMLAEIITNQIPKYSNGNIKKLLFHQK
Protocol: A human glucocorticoid receptor binding assay was carried out to determine the extent to which the compounds of this invention have the ability to bind to human glucocorticoid receptors. This binding ability may be indicative of the antiinflammatory activity of the compound. The test was carried out as follows.
Human glucocorticoid receptors were prepared from either insect cells (Sf21) infected with baculovirus hGR or from a lymphoblast cell line which expresses high levels of endogenous hGR (IM9). The receptor binding reactions, with or without test compounds, were set up in 96-well microtiter plates which were previously siliconized with SIGMACOTE™, a chlorinated organopolysiloxane in heptane. The binding components, 3(H) Triamcinolone acetonide (TAA), glycerol/molybdate-containing buffer and unlabeled compounds were added to the wells using a combination of BIOMEK laboratory automation system and repeat pipettes. After four hours of incubation, the samples were precipitated with polyethylene glycol and filtered through Whatman GF/F paper using a TOMTEK cell harvester. The filter mate with 96 samples were bound to a solid-phase scintillant and directly counted in a BETAPLATE counter. […] The activity of test compounds to displace 3(H) TAA binding to hGR is also expressed as percent inhibition at 1 μM.

[2] = system: oxazolone-induced ear swelling (MOCH) in albino male CD-1 mice; test: mouse oxazolone-induced contact hypersensitization (MOCH) ear swelling; type: in vivo; set-up: % Inhibition MOCH: concentration or dose not given beside the values; details: for Oxazolone Ear Swelling (MOCH) % inhibition vs. Vehicle at 1 mg: topical to mouse ear, one hour after oxazolone challenge, ear biopsy weight at 24 hours; for topical antiinflammatory activity in the oxazolone model (in words): mouse ear; for % Inhibition MOCH: mouse, in vivo
Protocol: Several triphenylpropanamide compounds of this invention, having varying affinities for the human glucocorticoid receptor, were tested for topical antiinflammatory activity in mouse ear inflammation models. […] Compounds having receptor affinities closer to hydrocortisone were as nearly active as hydrocortisone in suppressing mouse oxazolone-induced contact hypersensitization (MOCH) and phorbol ester-induced ear edema. The in vivo studies of this example were conducted as follows.
In determining the MOCH using the compounds of this invention, albino male CD-1 mice, 7-9 weeks old were induced on the shaved abdomen with 50 μl of 3% oxazolone in acetone/corn oil (Day 0). On Day 5, a 20 μl volume of 2% oxazolone in acetone was applied to the dorsal left ear of the mouse . Compounds (made in ethanol/propylene glycol, 70:30) were applied to the left ear in 20 μl volume, one hour after oxazolone challenge. The right ear was not treated. The mice were sacrificed by carbon dioxide inhalation 24 hours after oxazolone challenge, the left and right ears were removed and a 7 mm biopsy was removed from each ear and weighed. The difference in biopsy weights between the right and left ears was calculated. Antiinflammatory effects of compounds were evident as an inhibition of the increase in ear weight.

- hGR, value given as % [1]: 62%
Structure (SMILES): COc1ccccc1CC(=O)NCC(c1ccccc1)C(c1ccccc1)c1ccccc1 (stereo not shown) [Compound 5]
- Oxazolone Ear Swelling (MOCH) % inhibition vs. Vehicle at 1 mg [2]: 13%

- IC50 [1]: 45 nM
Structure (SMILES): O=C(Cc1ccccc1Cl)NCC(c1ccccc1)C(c1ccc(F)cc1)c1ccc(F)cc1 (stereo not shown) [Compound 16]
- topical antiinflammatory activity in the oxazolone model (in words) [2]: moderate topical activity

- IC50 [1]: 22 nM
Structure (SMILES): COc1ccccc1CCC(=O)NCC(c1ccccc1)C(c1ccc(F)cc1)c1ccc(F)cc1 (stereo not shown) [Compound 23]
- topical antiinflammatory activity in the oxazolone model (in words) [2]: moderate topical activity

- hGR, value given as % [1]: 46%
Structure (SMILES): O=C(Cc1ccccc1Cl)NCC(c1ccccc1)C1c2ccccc2-c2ccccc21 (stereo not shown) [Compound 68]
- Oxazolone Ear Swelling (MOCH) % inhibition vs. Vehicle at 1 mg [2]: 28%

- hGR, value given as % [1]: 15%
Structure (SMILES): O=C(Cc1ccccc1C(F)(F)F)NCC(c1ccccc1)C1c2ccccc2-c2ccccc21 (stereo not shown) [Compound 69]
- Oxazolone Ear Swelling (MOCH) % inhibition vs. Vehicle at 1 mg [2]: 43%

- hGR, value given as % [1]: 33%
Structure (SMILES): Cc1ccc(C(=O)NCC(c2ccccc2)C2c3ccccc3-c3ccccc32)s1 (stereo not shown) [Compound 72]
- Oxazolone Ear Swelling (MOCH) % inhibition vs. Vehicle at 1 mg [2]: 50%

Structure (SMILES): O=C(Cc1ccc(Cl)cc1Cl)NCC(c1ccc2c(c1)OCO2)C(c1ccccc1)c1ccccc1 (stereo not shown) [Compound 112]
- % Inhibition MOCH [2]: 36%

Structure (SMILES): O=C(Cc1ccc(Cl)c(Cl)c1)NCC(c1ccc2c(c1)OCO2)C(c1ccccc1)c1ccccc1 (stereo not shown) [Compound 113]
- % Inhibition MOCH [2]: 31%

Structure (SMILES): O=C(CSc1ccccc1)NCC(c1ccc2c(c1)OCO2)C(c1ccccc1)c1ccccc1 (stereo not shown) [Compound 114]
- % Inhibition MOCH [2]: 41%

Structure (SMILES): O=C(NCC(c1ccc2c(c1)OCO2)C(c1ccccc1)c1ccccc1)c1ccsc1 (stereo not shown) [Compound 115]
- % Inhibition MOCH [2]: 28%

Structure (SMILES): O=C(NCC(c1ccc2c(c1)OCO2)C(c1ccccc1)c1ccccc1)c1cccs1 (stereo not shown) [Compound 116]
- % Inhibition MOCH [2]: 62%

Structure (SMILES): O=C(NCC(c1ccc2c(c1)OCO2)C(c1ccccc1)c1ccccc1)c1ccccc1 (stereo not shown) [Compound 117]
- % Inhibition MOCH [2]: 28%

Structure (SMILES): COc1ccccc1C(=O)NCC(c1ccc2c(c1)OCO2)C(c1ccccc1)c1ccccc1 (stereo not shown) [Compound 118]
- % Inhibition MOCH [2]: 38%

Structure (SMILES): O=C(NCC(c1ccc2c(c1)OCO2)C(c1ccccc1)c1ccccc1)c1cc2ccccc2[nH]1 (stereo not shown) [Compound 119]
- % Inhibition MOCH [2]: 31%

Structure (SMILES): O=C(NCC(c1ccc2c(c1)OCO2)C(c1ccccc1)c1ccccc1)c1cc(C(F)(F)F)cc(C(F)(F)F)c1 (stereo not shown) [Compound 120]
- % Inhibition MOCH [2]: 27%

Structure (SMILES): O=C(NCC(c1ccc2c(c1)OCO2)C(c1ccccc1)c1ccccc1)c1cccc([N+](=O)[O-])c1 (stereo not shown) [Compound 121]
- % Inhibition MOCH [2]: 10%

Structure (SMILES): Cc1ccc(C(=O)NCC(c2ccc3c(c2)OCO3)C(c2ccccc2)c2ccccc2)cc1[N+](=O)[O-] (stereo not shown) [Compound 122]
- % Inhibition MOCH [2]: 33%

Structure (SMILES): N#Cc1cccc(C(=O)NCC(c2ccc3c(c2)OCO3)C(c2ccccc2)c2ccccc2)c1 (stereo not shown) [Compound 123]
- % Inhibition MOCH [2]: 51%

Structure (SMILES): O=C(CCc1ccccc1)NCC(c1ccc2c(c1)OCO2)C(c1ccccc1)c1ccccc1 (stereo not shown) [Compound 124]
- % Inhibition MOCH [2]: 35%

Structure (SMILES): CC(C)(C)c1ccc(C(=O)NCC(c2ccc3c(c2)OCO3)C(c2ccccc2)c2ccccc2)cc1 (stereo not shown) [Compound 125]
- % Inhibition MOCH [2]: 31%

Structure (SMILES): Cc1ccc(C(=O)NCC(c2ccc3c(c2)OCO3)C(c2ccccc2)c2ccccc2)cc1 (stereo not shown) [Compound 126]
- % Inhibition MOCH [2]: 46%

Structure (SMILES): O=C(NCC(c1ccc2c(c1)OCO2)C(c1ccccc1)c1ccccc1)c1ccc(F)cc1F (stereo not shown) [Compound 127]
- % Inhibition MOCH [2]: 61%

Structure (SMILES): O=C(NCC(c1ccc2c(c1)OCO2)C(c1ccccc1)c1ccccc1)c1ccc(F)cc1 (stereo not shown) [Compound 128]
- % Inhibition MOCH [2]: 54%

Structure (SMILES): O=C(NCC(c1ccc2c(c1)OCO2)C(c1ccccc1)c1ccccc1)c1ccccc1Cl (stereo not shown) [Compound 129]
- % Inhibition MOCH [2]: 41%

Structure (SMILES): O=C(NCC(c1ccc2c(c1)OCO2)C(c1ccccc1)c1ccccc1)c1ccc(Cl)cc1 (stereo not shown) [Compound 130]
- % Inhibition MOCH [2]: 37%

Structure (SMILES): O=C(NCC(c1ccc2c(c1)OCO2)C(c1ccccc1)c1ccccc1)c1cc(Cl)cc(Cl)c1 (stereo not shown) [Compound 131]
- % Inhibition MOCH [2]: 18%

Structure (SMILES): Cc1ccccc1C(=O)NCC(c1ccc2c(c1)OCO2)C(c1ccccc1)c1ccccc1 (stereo not shown) [Compound 133]
- % Inhibition MOCH [2]: 46%

Structure (SMILES): O=C(Cc1ccc(-c2ccccc2)cc1)NCC(c1ccc2c(c1)OCO2)C(c1ccccc1)c1ccccc1 (stereo not shown) [Compound 134]
- % Inhibition MOCH [2]: 29%

Structure (SMILES): O=C(Cc1cccs1)NCC(c1ccc(C(F)(F)F)cc1)C(c1ccccc1)c1ccccc1 (stereo not shown) [Compound 135]
- % Inhibition MOCH [2]: 31%

Structure (SMILES): O=C(NCC(c1ccc(C(F)(F)F)cc1)C(c1ccccc1)c1ccccc1)c1cccs1 (stereo not shown) [Compound 136]
- % Inhibition MOCH [2]: 38%

Structure (SMILES): O=C(NCC(c1ccc(C(F)(F)F)cc1)C(c1ccccc1)c1ccccc1)c1ccccc1Cl (stereo not shown) [Compound 137]
- % Inhibition MOCH [2]: 45%

Structure (SMILES): O=C(Cc1ccc(Cl)c(Cl)c1)NCC(c1ccc(C(F)(F)F)cc1)C(c1ccccc1)c1ccccc1 (stereo not shown) [Compound 138]
- % Inhibition MOCH [2]: 33%

Structure (SMILES): O=C(NCC(c1ccc(C(F)(F)F)cc1)C(c1ccccc1)c1ccccc1)c1ccc(Cl)cc1Cl (stereo not shown) [Compound 139]
- % Inhibition MOCH [2]: 42%

Structure (SMILES): Cc1cccc(CC(=O)NCC(c2ccc(C(F)(F)F)cc2)C(c2ccccc2)c2ccccc2)c1 (stereo not shown) [Compound 140]
- % Inhibition MOCH [2]: 57%

Structure (SMILES): O=C(Cc1ccccc1)NCC(c1ccc(C(F)(F)F)cc1)C(c1ccccc1)c1ccccc1 (stereo not shown) [Compound 141]
- % Inhibition MOCH [2]: 66%

Structure (SMILES): O=C(Cc1ccccn1)NCC(c1ccc(C(F)(F)F)cc1)C(c1ccccc1)c1ccccc1 (stereo not shown) [Compound 142]
- % Inhibition MOCH [2]: 39%

Structure (SMILES): CSc1ccc(CC(=O)NCC(c2ccc(C(F)(F)F)cc2)C(c2ccccc2)c2ccccc2)cc1 (stereo not shown) [Compound 143]
- % Inhibition MOCH [2]: 19%

Structure (SMILES): COc1cc(Cl)ccc1C(=O)NCC(c1ccc(C(F)(F)F)cc1)C(c1ccccc1)c1ccccc1 (stereo not shown) [Compound 144]
- % Inhibition MOCH [2]: 33%

Structure (SMILES): O=C(Cc1cc2cc(Cl)ccc2s1)NCC(c1ccc(C(F)(F)F)cc1)C(c1ccccc1)c1ccccc1 (stereo not shown) [Compound 145]
- % Inhibition MOCH [2]: 54%

Structure (SMILES): O=C(Cc1ccccc1Cl)NCC(c1ccc(C(F)(F)F)cc1)C(c1ccccc1)c1ccccc1 (stereo not shown) [Compound 146]
- % Inhibition MOCH [2]: 39%

Structure (SMILES): O=C(Cc1ccc(F)cc1F)NCC(c1ccc(C(F)(F)F)cc1)C(c1ccccc1)c1ccccc1 (stereo not shown) [Compound 147]
- % Inhibition MOCH [2]: 55%

Structure (SMILES): COc1ccccc1CC(=O)NCC(c1ccc(C(F)(F)F)cc1)C(c1ccccc1)c1ccccc1 (stereo not shown) [Compound 148]
- % Inhibition MOCH [2]: 42%

Structure (SMILES): COc1cc(CC(=O)NCC(c2ccc(C(F)(F)F)cc2)C(c2ccccc2)c2ccccc2)cc(OC)c1 (stereo not shown) [Compound 149]
- % Inhibition MOCH [2]: 42%

From patent publication US6509369B2, “Anti-inflammatory compounds” (Ortho-McNeil Pharmaceutical, Inc., priority 1997, dated 2003)
